Laboratory results reported in paper PMC10866072, “Design, synthesis, molecular modelling and biological evaluation of novel 6-amino-5-cyano-2-thiopyrimidine derivatives as potent anticancer agents against leukemia and apoptotic inducers” (Journal of Enzyme Inhibition and Medicinal Chemistry, 2024).

Legend:
SF-539 = type: cell-based; conditions: Homo sapiens, one dose 10^-5 M, 48 h
NCI/ADR-RES = type: cell-based; conditions: Homo sapiens, one dose 10^-5 M, 48 h
IGROV1 = type: cell-based; conditions: Homo sapiens, IGROV-1, one dose 10^-5 M, 48 h, read-out: % growth
786-0 = type: cell-based; conditions: Homo sapiens, one dose 10^-5 M, 48 h
OVCAR-8 = type: cell-based; conditions: Homo sapiens, one dose 10^-5 M, 48 h
LOX IMVI = type: cell-based; conditions: Homo sapiens, one dose 10^-5 M, 48 h, read-out: % growth
[1] = system: full NCI 60 cell lines panel; conditions: for activity at 10 µM: Homo sapiens, 60 cell, 48 h, read-out: Mean % growth; for activity on all 60 cancer cell lines tested (in words): one dose
UO-31 = type: cell-based; conditions: Homo sapiens, UO-31, 48 h, one dose 10^-5 M, 48 h
EKVX = type: cell-based; conditions: Homo sapiens, one dose 10^-5 M, 48 h
DU-145 = type: cell-based; conditions: Homo sapiens, one dose 10^-5 M, 48 h
HOP-92 = type: cell-based; conditions: Homo sapiens, one dose 10^-5 M, 48 h
HL-60(TB) = type: cell-based; conditions: Homo sapiens, one dose 10^-5 M, 48 h
SK-MEL-28 = type: cell-based; conditions: Homo sapiens, one dose 10^-5 M, 48 h
PC-3 = type: cell-based; conditions: Homo sapiens, one dose 10^-5 M, 48 h
NCI-H522 = type: cell-based; conditions: Homo sapiens, one dose 10^-5 M, 48 h
MOLT-4 = type: cell-based; conditions: Homo sapiens, one dose 10^-5 M, 48 h, read-out: % growth
SF-268 = type: cell-based; conditions: Homo sapiens, one dose 10^-5 M, 48 h, read-out: % growth
CCRF-CEM = type: cell-based; conditions: Homo sapiens, one dose 10^-5 M, 48 h
SK-MEL-2 = type: cell-based; conditions: Homo sapiens, one dose 10^-5 M, 48 h
MDA-MB-231/ATCC = type: cell-based; conditions: Homo sapiens, one dose 10^-5 M, 48 h
M14 = type: cell-based; conditions: Homo sapiens, one dose 10^-5 M, 48 h
OVCAR-5 = type: cell-based; conditions: Homo sapiens, one dose 10^-5 M, 48 h
NCI-H226 = type: cell-based; conditions: Homo sapiens, one dose 10^-5 M, 48 h
RPMI-8226 = type: cell-based; conditions: Homo sapiens, one dose 10^-5 M, 48 h
SW-620 = type: cell-based; conditions: Homo sapiens, one dose 10^-5 M, 48 h
HCT-116 = type: cell-based; conditions: Homo sapiens, one dose 10^-5 M, 48 h, read-out: % growth
OVCAR-4 = type: cell-based; conditions: Homo sapiens, one dose 10^-5 M, 48 h
MDA-MB-468 = type: cell-based; conditions: Homo sapiens, one dose 10^-5 M, 48 h
SR = type: cell-based; conditions: Homo sapiens, one dose 10^-5 M, 48 h
BT-549 = type: cell-based; conditions: Homo sapiens, one dose 10^-5 M, 48 h
HT29 = type: cell-based; conditions: Homo sapiens, HT-29, one dose 10^-5 M, 48 h
CAKI-1 = type: cell-based; conditions: Homo sapiens, CAKI-1, 48 h, one dose 10^-5 M, 48 h
SNB-19 = type: cell-based; conditions: Homo sapiens, one dose 10^-5 M, 48 h, read-out: % growth
NCI-H460 = type: cell-based; conditions: Homo sapiens, one dose 10^-5 M, 48 h, read-out: % growth
RXF 393 = type: cell-based; conditions: Homo sapiens, RXF 393, 48 h, one dose 10^-5 M, 48 h, read-out: % growth
K-562 = type: cell-based; conditions: Homo sapiens, K562, one dose 10^-5 M, 48 h
SF-295 = type: cell-based; conditions: Homo sapiens, one dose 10^-5 M, 48 h
COLO 205 = type: cell-based; conditions: Homo sapiens, one dose 10^-5 M, 48 h
SK-OV-3 = type: cell-based; conditions: Homo sapiens, one dose 10^-5 M, 48 h
OVCAR-3 = type: cell-based; conditions: Homo sapiens, one dose 10^-5 M, 48 h
HCC-2998 = type: cell-based; conditions: Homo sapiens, one dose 10^-5 M, 48 h
HOP-62 = type: cell-based; conditions: Homo sapiens, one dose 10^-5 M, 48 h
HCT-15 = type: cell-based; conditions: Homo sapiens, one dose 10^-5 M, 48 h, read-out: % growth
U251 = type: cell-based; conditions: Homo sapiens, U-251, one dose 10^-5 M, 48 h
A498 = type: cell-based; conditions: Homo sapiens, one dose 10^-5 M, 48 h
UACC-257 = type: cell-based; conditions: Homo sapiens, one dose 10^-5 M, 48 h
MALME-3M = type: cell-based; conditions: Homo sapiens, one dose 10^-5 M, 48 h
A549/ATCC = type: cell-based; conditions: Homo sapiens, one dose 10^-5 M, 48 h
NCI-H23 = type: cell-based; conditions: Homo sapiens, one dose 10^-5 M, 48 h, read-out: % growth
ACHN = type: cell-based; conditions: Homo sapiens, one dose 10^-5 M, 48 h
KM12 = type: cell-based; conditions: Homo sapiens, one dose 10^-5 M, 48 h
TK-10 = type: cell-based; conditions: Homo sapiens, one dose 10^-5 M, 48 h
MDA-MB-435 = type: cell-based; conditions: Homo sapiens, one dose 10^-5 M, 48 h, read-out: % growth
SK-MEL-5 = type: cell-based; conditions: Homo sapiens, one dose 10^-5 M, 48 h, read-out: % growth
MCF7 = type: cell-based; conditions: Homo sapiens, one dose 10^-5 M, 48 h, read-out: % growth
UACC-62 = type: cell-based; conditions: Homo sapiens, one dose 10^-5 M, 48 h
HS 578T = type: cell-based; conditions: Homo sapiens; one dose 10^-5 M, 48 h; HS 578T; read-out: % growth
T-47D = type: cell-based; conditions: Homo sapiens, T47D, one dose 10^-5 M, 48 h, read-out: % growth
SN12C = type: cell-based, human; conditions: Homo sapiens, one dose 10^-5 M, 48 h

N=C(NN=Cc1ccccc1)c1c(N)nc(S)nc1-c1ccc(Cl)cc1Cl [Compound 4m, 4-Amino-6–(2,4-dichlorophenyl)-2-mercapto-N'-[phenylmethylene]pyrimidine-5-carboximidohydrazide]
% growth at 10 µM (SF-539): 100%
cell growth percent at 10 µM (NCI/ADR-RES): 105%
activity at 10 µM (IGROV1): 101%
% growth at 10 µM (786-0): 92.5%
% growth of cells at 10 µM (OVCAR-8): 109%
activity at 10 µM (LOX IMVI): 100%
activity at 10 µM [1]: 101%
activity on all 60 cancer cell lines tested (in words) [1]: weak activity
% cell growth at 10 µM (UO-31): 90.1%
% cell growth at 10 µM (EKVX): 103%
% growth at 10 µM (DU-145): 111%
% growth at 10 µM (HOP-92): 69.2%
% growth at 10 µM (HL-60(TB)): 97.1%
% cell growth at 10 µM (SK-MEL-28): 104%
percent cell growth at 10 µM (PC-3): 103%
% growth at 10 µM (NCI-H522): 109%
activity at 10 µM (MOLT-4): 96.2%
activity at 10 µM (SF-268): 105%
% cell growth at 10 µM (CCRF-CEM): 105%
% growth at 10 µM (SK-MEL-2): 120%
% growth at 10 µM (MDA-MB-231/ATCC): 94.4%
% growth at 10 µM (M14): 96.2%
percent cell growth at 10 µM (OVCAR-5): 108%
% growth at 10 µM (NCI-H226): 92%
% growth at 10 µM (RPMI-8226): 104%
% growth at 10 µM (SW-620): 109%
activity at 10 µM (HCT-116): 103%
% growth at 10 µM (OVCAR-4): 115%
percent cell growth at 10 µM (MDA-MB-468): 91.1%
percent cell growth at 10 µM (SR): 83.2%
% cell growth at 10 µM (BT-549): 88.5%
% growth at 10 µM (HT29): 108%
% growth at 10 µM (CAKI-1): 96%
activity at 10 µM (SNB-19): 95.8%
activity at 10 µM (NCI-H460): 108%
activity at 10 µM (RXF 393): 89.5%
% growth at 10 µM (K-562): 95.8%
% cell growth at 10 µM (SF-295): 86.9%
% growth at 10 µM (COLO 205): 115%
% growth at 10 µM (SK-OV-3): 95.6%
% growth at 10 µM (OVCAR-3): 109%
% growth at 10 µM (HCC-2998): 105%
% growth at 10 µM (HOP-62): 96.6%
activity at 10 µM (HCT-15): 101%
% growth at 10 µM (U251): 97.3%
% growth at 10 µM (A498): 125%
percent cell growth at 10 µM (UACC-257): 106%
% growth at 10 µM (MALME-3M): 85.7%
% growth at 10 µM (A549/ATCC): 97.4%
activity at 10 µM (NCI-H23): 98.7%
% growth at 10 µM (ACHN): 108%
% growth at 10 µM (KM12): 103%
% cell growth at 10 µM (TK-10): 140%
activity at 10 µM (MDA-MB-435): 110%
activity at 10 µM (SK-MEL-5): 103%
activity at 10 µM (MCF7): 89.1%
% growth at 10 µM (UACC-62): 94.3%
activity at 10 µM (HS 578T): 102%
activity at 10 µM (T-47D): 103%
% growth at 10 µM (SN12C): 95.9%

N=C(NN=Cc1ccc(Br)cc1)c1c(N)nc(S)nc1-c1ccc(Cl)cc1Cl [Compound 4q, 4-amino-N'-[(4-bromophenyl)methylene]-6–(2,4-dichlorophenyl)-2-mercapto pyrimidine-5-carboximidohydrazide]
% growth at 10 µM (SF-539): 102%
cell growth percent at 10 µM (NCI/ADR-RES): 114%
activity at 10 µM (IGROV1): 105%
% growth at 10 µM (786-0): 93.8%
% growth of cells at 10 µM (OVCAR-8): 114%
activity at 10 µM (LOX IMVI): 109%
activity at 10 µM [1]: 104%
activity on all 60 cancer cell lines tested (in words) [1]: weak activity
% cell growth at 10 µM (UO-31): 94.2%
% cell growth at 10 µM (EKVX): 108%
% growth at 10 µM (DU-145): 108%
% growth at 10 µM (HOP-92): 102%
% growth at 10 µM (HL-60(TB)): 96.5%
% cell growth at 10 µM (SK-MEL-28): 106%
percent cell growth at 10 µM (PC-3): 102%
% growth at 10 µM (NCI-H522): 101%
activity at 10 µM (MOLT-4): 91.4%
activity at 10 µM (SF-268): 105%
% cell growth at 10 µM (CCRF-CEM): 96.8%
% growth at 10 µM (SK-MEL-2): 109%
% growth at 10 µM (MDA-MB-231/ATCC): 98.5%
% growth at 10 µM (M14): 101%
percent cell growth at 10 µM (OVCAR-5): 119%
% growth at 10 µM (NCI-H226): 107%
% growth at 10 µM (RPMI-8226): 98.8%
% growth at 10 µM (SW-620): 108%
activity at 10 µM (HCT-116): 96.2%
% growth at 10 µM (OVCAR-4): 109%
percent cell growth at 10 µM (MDA-MB-468): 113%
percent cell growth at 10 µM (SR): 86.7%
% cell growth at 10 µM (BT-549): 97.7%
% growth at 10 µM (HT29): 112%
% growth at 10 µM (CAKI-1): 86.9%
activity at 10 µM (SNB-19): 99.2%
activity at 10 µM (NCI-H460): 110%
activity at 10 µM (RXF 393): 101%
% growth at 10 µM (K-562): 92.2%
% cell growth at 10 µM (SF-295): 96.6%
% growth at 10 µM (COLO 205): 114%
% growth at 10 µM (SK-OV-3): 103%
% growth at 10 µM (OVCAR-3): 104%
% growth at 10 µM (HCC-2998): 114%
% growth at 10 µM (HOP-62): 101%
activity at 10 µM (HCT-15): 108%
% growth at 10 µM (U251): 107%
% growth at 10 µM (A498): 129%
percent cell growth at 10 µM (UACC-257): 102%
% growth at 10 µM (MALME-3M): 91.2%
% growth at 10 µM (A549/ATCC): 98.8%
activity at 10 µM (NCI-H23): 102%
% growth at 10 µM (ACHN): 108%
% growth at 10 µM (KM12): 100%
% cell growth at 10 µM (TK-10): 148%
activity at 10 µM (MDA-MB-435): 104%
activity at 10 µM (SK-MEL-5): 104%
activity at 10 µM (MCF7): 90.9%
% growth at 10 µM (UACC-62): 96.4%
activity at 10 µM (HS 578T): 118%
activity at 10 µM (T-47D): 110%
% growth at 10 µM (SN12C): 103%
